{"source": "patent US11826372B2", "about": "“Combinations including ABX196 for the treatment of cancer” (ABIVAX, priority 2016, dated 2023)", "key": {"[1]": {"test_system": "Melanoma B16F10 tumor", "conditions": "for T/C (antitumor activity index): B16F10 in C57BL/6 mice, ABX196 100 ng i.v. or 10 ng i.t. Day 10, anti-PD-1 mAb 100 μg i.p. Days 6, 9, 12, 15 and 18", "experimental": "The study was performed on a syngeneic in vivo melanoma B16F10 tumor-bearing mouse model. B16F10 tumor cells were subcutaneously inoculated in immuno-competent C57BL/6 mice.\nMelanoma B16F10 tumor cells were subcutaneously inoculated at day 0 by injecting cells in the flank of 8-10 weeks-old female C57BL/6 mice, and animals were then randomly assigned into control (vehicle PBS-treated) and treatments groups.\nFor the anti-PD-1 antibodies treatment, mice were intraperitoneally (IP) injected with anti-PD-1 antibodies at Day 6, 9, 12, 15 and 21. Furthermore, ABX196 was administered at 1 dose, intravenously or intratumorally, with one administration at Day 10 when mean of tumor size reached 100 mm^3.\nThe animal pharmacological groups for anti-tumor efficacy assessment were organized as such: • Control vehicle-treated group (PBS according to anti-PD-1 treatment schedule) • Anti-PD-1-treated group (at 1 dose, intraperitoneal administration) • ABX196-treated group (at 1 dose, Intravenous (iv) administration at Day10) • Combination-treated group (ABX196 at 1 dose, Intravenous (iv) administration at Day10 in combination with anti-PD-1 antibodies at 1 dose, intraperitoneal (ip) administration) • ABX196-treated group (at 1 dose, Intratumoral (it) administration at Day10) • Combination-treated group (ABX196 at 1 dose, Intratumoral (it) administration at Day10 in combination with anti-PD-1 antibodies at 1 dose, intraperitoneal (ip) administration)\nTumor volume and body weight of the animals were measured and recorded three times per week. A tumor volume exceeding 2000 mm3 or a weight loss greater than 15% relative to the initial weight of the animal were considered as endpoints.\nB16F10 cells were implanted subcutaneously in the right flank of C57BL/6 immunocompetent mice (8 week-old female). The implantation procedure was as follows (all steps were carried out under sterile laminar flow conditions):\nMice (body weight around 20 g) were anesthetized with an intraperitoneal injection of 90 μL of anesthetic (ie 1.5 mg/Kg Ketamine and Xylazine 150 μg/Kg). The cells to be implanted were resuspended in sterile PBS and the volume needed to implant was loaded in 1 ml syringe with a needle (1,000,000 cells/100 μL).\nAnti-PD-1 monoclonal antibodies (a-PD-1) treatment schedule was applied, at 100 μg by i.p. injection. Treatment was repeated 4 times, at Days 6, 9, 12, 15 and 18.\nABX196 was administered at Day 10 either: • by intravenous (i.v) injection at the dose of 100 ng per mouse; or • by intratumoral (i.t) injection at the dose of 10 ng per mouse\nStarting from day 6 after B16F10 cell inoculation, all experimental animal groups were monitored 3 times per week over a 4 weeks period for the following parameters: • Tumor size: measured by physical examination, 3 times per week, • Body weight: monitored 3 times per week, and • Survival: represented in a Kaplan-Meier plot."}, "[2]": {"test_system": "MBT-2 Bladder Cancer", "experimental": "ABX196 was administered at the dose of 100 ng per mouse. The anti-PD-1 antibody was administered at the dose of 10 mg/kg.\nMBT-2 tumors were induced by subcutaneous injection of 1×10^6 cells in 200 μL of RPMI 1640 into the right flank of sixty-eight (68) female animals.\nThe treatment started when the tumors reached a mean volume of 80-120 mm^3. […] A statistical test (analysis of variance, ANOVA) was performed to test for homogeneity between groups. The treatment schedule was as follows: • Animals from group 1 received an IV injection of ABX196 vehicle and an IP injection of anti-PD-1 antibody vehicle, • Animals from group 2 received an IV injection of 100 ng of ABX196, • Animals from group 3 received twice weekly administrations of anti-PD-1 antibody, • Animals from group 4 received an IV injection of 100 ng of ABX196 and twice weekly administrations of anti-PD-1 antibody.\nThe viability and behavior were recorded every day. Body weights were measured twice a week. The length and width of the tumor were measured twice a week with calipers and the volume of the tumor was estimated by the formula:\nAll statistical analyses were performed using Vivo Manager® software (Biosystemes, Couternon, France). Statistical analysis of mean body weights, MBWC, mean tumor volumes at randomization, mean tumor volumes V, mean times to reach V and mean tumor doubling times were performed using ANOVA. Pairwise tests were performed using the Bonferroni/Dunn correction in case of significant ANOVA results. The log-Rank (Kaplan-Meier) test was used to compare the survival curves. A p value <0.05 was considered as significant."}, "[3]": {"test_system": "CT-26 Colorectal Cancer", "experiment": "Antitumor activity of ABX196 alone or with anti-PD-1 antibody in mice bearing subcutaneous CT-26 colorectal cancer (Example 6)", "type": "in vivo, mouse", "conditions": "CT-26 in BALB/c mice; ABX196 100 ng IV Q1Dx1; anti-PD-1 Ab 10 mg/kg IP TWx2", "procedure": "Body weights were measured twice a week."}, "[4]": {"test_system": "B16-F10 melanoma", "experimental": "Tumor was induced by subcutaneous injection of 1×10^6 of B16-F10 cells in 200 μL of PBS buffer into the right flank of 95 C57BL/6 female animals. The day of tumor cell injection in the right flank was considered as D0.\nOn D3, 90 out of ninety-five 95 were then randomized according to their body weight into 6 groups each of 15 animals (groups 1-6).\nThe viability and behavior were recorded every day. Body weights were measured twice a week until injection of tumor cells then thrice a week. The length and width of the tumor were measured thrice a week with calipers and the volume of the tumor was estimated by the formula:\nThe treatment efficacy was assessed in terms of the effects of the vaccine composition on the tumor volumes of treated animals relative to control animals. The following evaluation criteria of antitumor efficacy was determined using Vivo Manager® software (Biosystemes, Couternon, France): • Individual, mean and median tumor volumes were provided, • The number of tumor-free mice was provided.\nMice survival was also monitored and used as an efficacy parameter. Survival curves were drawn.\nPercent treated/control (T/C (%) index) is calculated by dividing the median treated tumor volume by the median control tumor volume on day 14 and multiplying by 100. A T/C % equal or less than 42% is considered significant antitumor activity by the drug evaluation branch of the division of cancer treatment (NCI).\nTumor growth inhibition is also reflective to the antitumor effectiveness and is calculated following the formula:\nMean tumor volumes at defined times were analyzed with the GrapadPrism Software (Version 6.07) using the Kruskall-Wallis test for all the treatments. A significant difference between all treatments (P<0.05) was followed by pairwise comparisons using the Dunn's multiple comparison test. Survival was analyzed using the Log-rank (Mantel-Cox) test with GrapadPrism Software (Version 6.07). A significant difference between all treatments (P<0.05) was followed by pairwise comparisons using the Log-rank (Mantel-Cox) test."}, "[5]": {"test_system": "Hepa 1-6 Hepatocarcinoma", "conditions": "for Fraction alive / Fraction without detectable metastasis: Day 61, orthotopic Hepa 1-6 in C57BL/6 mice; for Tumor invasion of the liver at day 20, Dunn's multiple comparisons test vs Vehicle: Mean rank diff.: ABX196 100 ng IV D5, sorafenib 100 mg/kg PO Q1Dx21, doxorubicin 12 mg/kg IV D5, anti-PD-1 10 mg/kg IP D7/D10/D14/D17", "experimental": "Tumor invasion was evaluated semi-quantitively by a visual evaluation of the percentage of tumor in the entire liver.\nOne million (1×106) of tumor cells in 50 μL of RPMI 1640 medium were transplanted via intra-splenic injection into 100 C57BL/6 mice. Briefly, a small left subcostal flank incision was made. Spleen was exteriorized. The spleen was exposed on the sterile gauze pad, and injected under visual control with the cell suspension with a 27-gauge needle. After the cell inoculation, the spleen was excised. The day of tumor cell injection was considered as DO.\nThe treatment started at D5. Ninety-nine animals (99) out of one hundred (100) were randomized according to their individual body weight into 3 groups of 13 animals and 5 groups of 12 animals using Vivo Manager® software (Biosystemes, Couternon, France). A statistical test (analysis of variance, ANOVA) was performed to test for homogeneity between groups. The treatment schedule was as follows: • Animals from group 1 received one IV injection of ABX196 vehicle at day 5, • Animals from group 2 received one daily PO administration of sorafenib at 100 mg/kg/adm for 21 consecutive days, starting at day 5, • Animals from group 3 received one IV injection of 100 ng of ABX196 on day 5 and one daily PO administration of sorafenib at 100 mg/kg/adm for 21 consecutive days, starting at day 5, • Animals from group 4 received one IV injection of Doxorubicin at 12 mg/kg on day 5, • Animals from group 5 received one IV injection of 100 ng of ABX196 and one IV injection of Doxorubicin at 12 mg/kg on day 5, • Animals from group 6 received 4 IP administrations of anti-PD-1 antibody on day 7, 10, 14 and 17 (Twice weekly×2), • Animals from group 7 received one IV injection of 100 ng of ABX196 on day 5 and 4 IP administrations of anti-PD-1 antibody on day 7, 10, 14 and 17 (Twice weekly×2).\nAt D19 and D20, 5 mice per group from group 1 to 8 were imaged (40 animals per day). A semi-quantitative analysis was then performed.\nAt the time of final mice termination (around D60), liver was weighted. The number of metastases was evaluated macroscopically and the localization, the appearance (shape, colour, consistency) and the size of each of them was recorded. Macroscopic photography of the liver was taken.\nThe treatment efficacy was assessed in terms of the effects of the test substance on the tumor volumes of treated animals relative to control animals. The following evaluation criteria of antitumor efficacy were determined: • Individual and/or mean (or median) measurement at D19-20 of tumor invasion within the liver using MRI imaging, • Measurement of circulating a-Fetoprotein in the plasma at D22, • Liver weight measured at termination, • Survival curves, • Median survival times.\nStatistical analysis of tumor invasion between vehicle and each group at day 20.\nPair wise comparison with Dunn's test"}, "[6]": {"conditions": "Unpaired t test two tailed, with Welch's correction, listed as ABX196 i.t"}, "[7]": {"conditions": "Unpaired t test two tailed, with Welch's correction, listed as ABX196 i.v"}, "[8]": {"conditions": "MBT-2 in C3H/HeJ mice, ABX196 100 ng IV Q1Dx1, anti-PD-1 Ab 10 mg/kg IP TWx2"}}, "note": "Read-outs that look alike come from different tables or passages of the source."}
{"smiles": "CCCCCCCCCCCCCCCCCCCCCCCC(=O)N[C@@H](CO[C@H]1O[C@H](CNC(C)=O)[C@H](O)[C@H](O)[C@H]1O)[C@H](O)[C@H](O)CCCCCCCCCCCCCC", "note": "[ABX196]", "values": [{"measurement": "Effect on tumor volume (in words)", "setting": "[1]; B16F10 bearing mice, FIGS. 5 and 6", "result": "transient effect"}, {"measurement": "T/C (antitumor activity index)", "setting": "[1]; listed as ABX196 it", "result": 53}, {"measurement": "T/C (antitumor activity index)", "setting": "[1]; listed as ABX196 iv", "result": 51}, {"measurement": "Mean Tumor Volume at Day 17 (p value) vs ABX196 i.v", "setting": "[1]; Unpaired t test two tailed, with Welch's correction, vs ABX196 i.v", "result": 0.0554}, {"measurement": "Mean Tumor Volume at Day 17 (p value) vs Vehicle", "setting": "[1]; [6]", "result": 0.8942}, {"measurement": "Mean Tumor Volume at Day 17 (p value) vs Vehicle", "setting": "[1]; [7]", "result": 0.2838}, {"measurement": "Mean Tumor Volume at Day 17 (p value) vs αPD-1 + ABX196 i.v", "setting": "[1]; Unpaired t test two tailed, with Welch's correction, vs αPD-1 + ABX196 i.v", "result": "<0.0001"}, {"measurement": "Mean Tumor Volume at Day 17 (p value) vs αPD-1", "setting": "[1]; [6]", "result": 0.2031}, {"measurement": "Mean Tumor Volume at Day 17 (p value) vs αPD-1", "setting": "[1]; [7]", "result": 0.7081}, {"measurement": "Mean Tumor Volume at Day 17 (Significativity) vs αPD-1 + ABX196 i.v", "setting": "[1]; vs αPD-1 + ABX196 i.v", "result": "**** (****p < 0.0001)"}, {"measurement": "Statistical analysis of mice survival, pairwise p vs ABX196 + Anti-PD-1", "setting": "[2]; MBT-2, Log-Rank (Mantel-cox) test, vs ABX196 + Anti-PD-1", "result": "***0.0002"}, {"measurement": "Statistical analysis of mice survival, pairwise p vs Vehicle", "setting": "[2]; MBT-2, Log-Rank (Mantel-cox) test, vs Vehicle", "result": "*0.02"}, {"measurement": "Median Survival", "setting": "[2]; MBT-2 bearing mice, ABX196 100 ng IV, anti-PD-1 Ab 10 mg/kg IP TWx2", "result": 27, "unit": "days"}, {"measurement": "T/C (antitumor activity index)", "setting": "[2]; [8]", "result": 57}, {"measurement": "TGI (antitumor activity index)", "setting": "[2]; [8]", "result": 43}, {"measurement": "T/C (antitumor activity index)", "setting": "[3]", "result": 51}, {"measurement": "TGI (antitumor activity index)", "setting": "[3]", "result": 72}]}
{"smiles": "COc1cccc2c1C(=O)c1c(O)c3c(c(O)c1C2=O)C[C@@](O)(C(=O)CO)C[C@@H]3O[C@H]1C[C@H](N)[C@H](O)[C@H](C)O1", "note": "[Doxorubicin, doxorubicin]", "values": [{"measurement": "Tumor growth in comparison to the vehicle-treated group (in words)", "setting": "[4]; B16-F10 tumors in C57BL/6 mice, FIGS. 1 and 3", "result": "weak and non-significant"}, {"measurement": "Median Survival", "setting": "[4]; C57BL/6 mice, s.c. B16-F10 (1×10^6 cells), CL II-TRP2/ABX196 50 μg/1 μg IV D3, anti-PD-1 Ab 10 mg/kg IP D10/D14/D17/D21, doxorubicin 12 mg/kg IV D7", "result": 21, "unit": "days"}, {"measurement": "Statistical analysis of tumor growth at D17, pairwise comparison with TRP2-ABX196", "setting": "[4]; D17, Dunn's multiple comparison test, vs TRP2-ABX196", "result": "ns"}, {"measurement": "Statistical analysis of tumor growth at D17, pairwise comparison with TRP2-ABX196 + Doxo.", "setting": "[4]; D17, Dunn's multiple comparison test, vs TRP2-ABX196 + Doxo.", "result": "* (*P < 0.05)"}, {"measurement": "Statistical analysis of tumor growth at D17, pairwise comparison with TRP2-ABX196 + α-PD-1", "setting": "[4]; D17, Dunn's multiple comparison test, vs TRP2-ABX196 + α-PD-1", "result": "ns"}, {"measurement": "Statistical analysis of tumor growth at D17, pairwise comparison with Vehic.", "setting": "[4]; D17, Dunn's multiple comparison test, vs Vehic.", "result": "ns"}, {"measurement": "Statistical analysis of tumor growth at D17, pairwise comparison with α-PD-1", "setting": "[4]; D17, Dunn's multiple comparison test, vs α-PD-1", "result": "ns"}, {"measurement": "Statistical analysis of tumor growth at D19, pairwise comparison with TRP2-ABX196", "setting": "[4]; D19, Dunn's multiple comparison test, vs TRP2-ABX196", "result": "ns"}, {"measurement": "Statistical analysis of tumor growth at D19, pairwise comparison with TRP2-ABX196 + Doxo.", "setting": "[4]; D19, Dunn's multiple comparison test, vs TRP2-ABX196 + Doxo.", "result": "* (*P < 0.05)"}, {"measurement": "Statistical analysis of tumor growth at D19, pairwise comparison with TRP2-ABX196 + α-PD-1", "setting": "[4]; D19, Dunn's multiple comparison test, vs TRP2-ABX196 + α-PD-1", "result": "ns"}, {"measurement": "Statistical analysis of tumor growth at D19, pairwise comparison with Vehic.", "setting": "[4]; D19, Dunn's multiple comparison test, vs Vehic.", "result": "ns"}, {"measurement": "Statistical analysis of tumor growth at D19, pairwise comparison with α-PD-1", "setting": "[4]; D19, Dunn's multiple comparison test, vs α-PD-1", "result": "ns"}, {"measurement": "Statistical analysis of mice survival, pairwise P vs α-PD-1 (row head as printed)", "setting": "[4]; Log-rank (Mantel-Cox) test, listed as printed as α-PD-1", "result": 0.624}, {"measurement": "Statistical analysis of mice survival, pairwise P vs Vehicle", "setting": "[4]; Log-rank (Mantel-Cox) test, vs Vehicle", "result": 0.0015}, {"measurement": "T/C (anti-tumor activity index)", "setting": "[4]; day 14, median treated / median control tumor volume ×100, B16-F10 in C57BL/6 mice", "result": 56.3, "unit": "%"}, {"measurement": "Fraction alive", "setting": "[5]", "result": "9/12"}, {"measurement": "Fraction without detectable metastasis", "setting": "[5]", "result": "9/12"}, {"measurement": "Tumor invasion of the liver at day 20, Dunn's multiple comparisons test vs Vehicle: Mean rank diff.", "setting": "[5]; MRI, day 20", "result": 28.52}, {"measurement": "Tumor invasion of the liver at day 20, Dunn's multiple comparisons test vs Vehicle: Significant?", "setting": "[5]; MRI, day 20, vs Vehicle", "result": "Yes"}]}
{"smiles": "CNC(=O)c1cc(Oc2ccc(NC(=O)Nc3ccc(Cl)c(C(F)(F)F)c3)cc2)ccn1", "note": "[Sorafenib]", "values": [{"measurement": "Fraction alive", "setting": "[5]", "result": "5/13"}, {"measurement": "Fraction without detectable metastasis", "setting": "[5]", "result": "5/13"}, {"measurement": "Tumor invasion of the liver at day 20, Dunn's multiple comparisons test vs Vehicle: Mean rank diff.", "setting": "[5]; MRI, day 20", "result": 8.644}, {"measurement": "Tumor invasion of the liver at day 20, Dunn's multiple comparisons test vs Vehicle: Significant?", "setting": "[5]; MRI, day 20, vs Vehicle", "result": "No"}, {"measurement": "Tumor invasion of the liver at day 20, Dunn's multiple comparisons test vs Vehicle: Summary", "setting": "[5]; MRI, day 20, vs Vehicle", "result": "ns"}]}
